Measured values as given in PubChem BioAssay (NCI).
Values joined by “and” are separate entries in the source; they are usually repeats but may differ in a detail not shown here. Identical values can stand only once.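 In this assay, cells in 96-well plates receive the compound at five concentrations for 48 hours. Endpoints are linearly interpolated between the surrounding concentrations. The concentration for 50% growth inhibition is given as GI50. Definition used: TGI = concentration required for complete inhibition of growth.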

Experiments:
Assay in all cases: growth of human tumour cells (NCI), 48 h
[1] = system: EKVX NSCLC
[2] = system: HOP-92 NSCLC
[3] = system: LOX IMVI melanoma
[4] = system: M14 melanoma
[5] = system: SF-268 CNS
[6] = system: SK-MEL-2 melanoma
[7] = system: SK-OV-3 ovarian
[8] = system: SNB-19 CNS
[9] = system: SNB-75 CNS
[10] = system: UACC-257 melanoma

| Compound | TGI [1] | TGI [2] | TGI [3] | TGI [4] | TGI [5] | TGI [6] | TGI [7] | TGI [8] | TGI [9] | TGI [10] | GI50 [7] |
| --- | --- | --- | --- | --- | --- | --- | --- | --- | --- | --- | --- |
| O=P(O)(O)OP(=O)(O)O | > 100 µM | > 100 µM | > 100 µM | > 100 µM | > 100 µM | > 100 µM | > 100 µM | > 100 µM | > 100 µM | > 100 µM |  |
| O=S1c2ccccc2N=C(c2ccc3ccccc3c2)CC1c1ccccc1 (stereo not given) | 91.5 µM | > 100 µM | 36.5 µM | > 100 µM | 37.2 µM | 92.3 µM | 92.6 µM | 34.9 µM | 38.5 µM | > 100 µM |  |
| C/C(=C\CNc1ncnc2nc(Cl)[nH]c12)CO | > 100 µM | > 100 µM | > 100 µM | > 100 µM | > 100 µM |  | > 100 µM | > 100 µM | > 100 µM | > 100 µM |  |
| COC(=O)c1c(O)ccc2c1c1c(n2Cc2ccccn2)C(=O)c2ccccc2C1 |  |  | > 100 µM | > 100 µM | > 100 µM | > 100 µM | > 100 µM | > 100 µM | > 100 µM | > 100 µM |  |
| Fc1cc(C2=C[C@H](c3ccc4c(c3)OCO4)NC(=S)N2)c(Cl)cc1Cl | > 100 µM | > 100 µM | > 100 µM | > 100 µM | > 100 µM | 62.7 µM | > 100 µM | > 100 µM | 91.1 µM | 83.6 µM |  |
| CCOC(=O)C(=CNC(Cc1c[nH]c2ccccc12)C(=O)OC)C(=O)OCC (stereo not given) | > 100 µM | > 100 µM | > 100 µM | > 100 µM | > 100 µM | > 100 µM | > 100 µM | > 100 µM | > 100 µM |  |  |
| COC(=N)C(C)C |  | > 100 µM | > 100 µM | > 100 µM | > 100 µM |  | > 100 µM | > 100 µM | > 100 µM | > 100 µM |  |
| CCOC(=O)C(C)OC(=O)c1ccc(C)cc1 (stereo not given) | > 100 µM | > 100 µM | > 100 µM | > 100 µM | > 100 µM | > 100 µM | > 100 µM | > 100 µM | > 100 µM | > 100 µM |  |
| Clc1ccc(NCc2nnc(COc3ccc(OCc4nnc(CNc5ccc(Cl)cc5)o4)c(Cl)c3)o2)cc1 | > 100 µM | 83.5 µM | > 100 µM | > 100 µM | > 100 µM | > 100 µM |  | > 100 µM |  | > 100 µM |  |
| O=C(CSc1nc2ccc(Cl)cc2c(=O)n1-c1ccccc1)N=Nc1c(O)[nH]c2ccc(F)cc12 | 14.4 µM | 8.51 µM | 3.22 µM | 11 µM | 8.83 µM | 5.3 µM | 22.3 µM | 10.5 µM | 5.65 µM | 10.6 µM |  |
| COC1OC(C(=O)CP(=O)(OC)OC)C(OCc2ccccc2)C(OCc2ccccc2)C1OCc1ccccc1 (stereo not given) | 29.4 µM and 32.2 µM | 37.1 µM and 34.7 µM | 33.1 µM and 32.6 µM | 28.8 µM and 30.4 µM | 37.9 µM and 33.5 µM | 30.7 µM and 31.3 µM | 32.7 µM and 32.6 µM | 29.7 µM and 30.3 µM | 29.9 µM and 30.6 µM | 29.3 µM and 30.1 µM |  |
| COc1cc(S(=O)(=O)N/N=C/C=C/c2ccccc2)c(OC)cc1NC(C)=O | > 100 µM | > 100 µM | > 100 µM | > 100 µM | > 100 µM | > 100 µM | > 100 µM | > 100 µM | > 100 µM | > 100 µM |  |
| CC(C)(C)OC(=O)N1C(C2=COc3ccccc3O2)=COc2cccnc21 | 4.03 µM | 3.9 µM | 3.36 µM | 3.65 µM | 3.93 µM | 3.96 µM | 3.99 µM |  | 29.2 µM | 3.92 µM |  |
| O=c1oc2c(ccc3occc32)c(N2CCCCC2)c1-c1ccccc1 | > 100 µM | > 100 µM | > 100 µM |  | > 100 µM | > 100 µM | > 100 µM | > 100 µM | > 100 µM |  | > 100 µM |
